Results on eleven compounds are retold here after US10213415B2, “Compounds as opioid receptor modulators” (JANSSEN PHARMACEUTICA NV, priority 2004, dated 2019).

One experiment has as its target T1, delta opioid receptor (Rattus norvegicus, UniProt P33533).
T1 construct: from tissue; host or cells: forebrain of male Wistar rats
Briefly: Rat Brain Delta Opioid Receptor Binding Assay ([3H]DPDPE). To be noted: rat forebrain membranes, margin of error 10-20%. The method in brief: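 Rat (male Wistar) forebrain membranes in 50 mM Tris-HCl pH 7.4 with 5 mM MgCl2, incubated with ~4 nM [3H]DPDPE for 2.5 h at 25 °C. Bound ligand collected by filtration and scintillation counting. Single-concentration data given as % inhibition of specific binding; concentration series fitted to Ki.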

The next experiment deals with T2, human mu opioid receptor (Homo sapiens, UniProt P35372).
T2 construct: purchased Perkin Elmer RBHOMM400UA; host or cells: Chinese Hamster Ovary cells (recombinant expression)
Briefly: Human Mu Opioid Receptor Binding Assay (CHO membranes, 3H-Damgo). Put shortly:
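Membranes from CHO cells expressing human mu opioid receptor, 300 μg/mL, in 50 mM Tris pH 7.5, 5 mM MgCl2. Incubated with compound and ³H-Damgo (3.6 nM before mixing) for 2 h at room temperature, filtered, counted by scintillation. Nonspecific binding with 1 μM unlabelled Damgo.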

Experiment [1] addresses T3, mu opioid receptor (CHO-hMOR cell membranes) (Homo sapiens, UniProt P35372).
T3 construct: purchased Receptor Biology, Inc. (Baltimore, Md.); host or cells: CHO cells (recombinant expression)
In words: Mu Opioid Receptor Functional Assay: [35S]GTPγS Binding in CHO-hMOR Cell Membranes, Versions 1 and 2. The format is biochemical. The note with it: for MOR GTP binding assay_v2 (% I): version 2, % inhibition of agonist-stimulated GTPγS binding; for EC50: version 2, read-out: MOR GTP binding assay v2 EC50; for MOR GTP binding assay_v1 (% I): version 1, % inhibition of agonist-stimulated GTPγS binding; for MOR GTP assay_v1 % of Basal: version 1, basal binding = 100%. Put shortly: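 CHO-hMOR membranes (10 μg/ml) on WGA SPA beads, preincubated 45 min at 25 °C, then incubated with 0.5 nM [35S]GTPγS in HEPES pH 7.6, 5 mM MgCl2, 100 mM NaCl, 1 mM DTT, 1 mM EDTA. Non-specific binding with 10 μM unlabeled GTPγS; agonist EC50 from concentration-response, antagonism as inhibition of 1 μM SNC80-stimulated binding.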
In general terms: GTPγS resists hydrolysis and so accumulates on activated G proteins.

Several values for one entry are separate records, joined by “and”; a condition that tells them apart may be missing. Equal values may be shown once. Read-outs that look alike come from different tables or passages of the source.

Broadly, the EC50 is the concentration at which the effect is half-maximal.

T2 sequence (P35372 whole entry): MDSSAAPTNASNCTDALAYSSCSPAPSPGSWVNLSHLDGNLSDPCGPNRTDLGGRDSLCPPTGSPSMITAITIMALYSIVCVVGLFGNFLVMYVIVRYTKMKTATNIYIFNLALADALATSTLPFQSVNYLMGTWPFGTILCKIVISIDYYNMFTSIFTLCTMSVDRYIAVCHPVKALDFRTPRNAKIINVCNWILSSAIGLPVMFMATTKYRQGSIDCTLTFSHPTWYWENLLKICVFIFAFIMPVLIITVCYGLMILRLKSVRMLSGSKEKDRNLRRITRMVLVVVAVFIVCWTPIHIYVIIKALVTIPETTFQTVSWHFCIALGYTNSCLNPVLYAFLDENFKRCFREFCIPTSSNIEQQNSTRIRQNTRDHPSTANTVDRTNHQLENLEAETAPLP
T3 sequence (P35372 whole entry): as above
T1 sequence (P33533 whole entry): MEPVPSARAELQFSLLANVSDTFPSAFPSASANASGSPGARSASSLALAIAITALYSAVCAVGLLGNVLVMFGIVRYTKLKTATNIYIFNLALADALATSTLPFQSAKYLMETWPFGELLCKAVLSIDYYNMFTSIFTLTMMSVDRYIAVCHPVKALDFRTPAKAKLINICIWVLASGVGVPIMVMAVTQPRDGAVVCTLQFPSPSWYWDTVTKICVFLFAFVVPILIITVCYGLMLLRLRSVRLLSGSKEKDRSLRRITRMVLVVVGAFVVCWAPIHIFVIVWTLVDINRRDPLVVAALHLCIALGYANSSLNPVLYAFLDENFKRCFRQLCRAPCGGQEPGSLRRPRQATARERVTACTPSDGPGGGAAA

As for `COc1ccc(CN(C(=O)[C@@H](N)Cc2c(C)cc(O)cc2C)[C@@H](C)c2nc(-c3ccccc3)c[nH]2)cc1C(=O)O` [Cpd 260], at delta opioid receptor (read-out: r Ki δ), the Ki was determined as 0.13 nM. In addition, at human mu opioid receptor (read-out: hKi μ), the Ki was 0.58 nM. In addition, in experiment [1], the “MOR GTP binding assay_v2 (% I)” value was 2.89% and the EC50 turned out to be 1.5 nM.

On to `Cc1cc(O)cc(C)c1C[C@H](N)C(=O)N(C)Cc1nc(-c2ccccc2)c[nH]1` [Cpd 199], for which, at delta opioid receptor (read-out: r Ki δ), the Ki is 26.3 nM. Moreover, at human mu opioid receptor (read-out: hKi μ), the Ki worked out at 0.29 nM. In experiment [1], the “MOR GTP binding assay_v1 (% I)” value stood at 11.00% and the “MOR GTP assay_v1 % of Basal” value worked out at 465.00%.

For the compound `Cc1cc(O)cc(C)c1C[C@H](N)C(=O)N(Cc1nc(-c2ccccc2)c[nH]1)CC1CC1` [Cpd 192], the Ki worked out at 7.64 nM at delta opioid receptor (read-out: r Ki δ) and 0.62 nM at human mu opioid receptor (read-out: hKi μ). Further, in experiment [1], the “MOR GTP binding assay_v1 (% I)” value was determined as 30.00%. Further, the “MOR GTP assay_v1 % of Basal” value in experiment [1] is 383.00%.

Turning to `Cc1cc(O)cc(C)c1C[C@H](N)C(=O)N(Cc1nc(-c2cc(C(F)(F)F)cc(C(F)(F)F)c2)c(C)[nH]1)C(C)C` [Cpd 164], the Ki on delta opioid receptor (read-out: r Ki δ) turned out to be 120 nM; at human mu opioid receptor (read-out: hKi μ), 16.3 nM. Also, the “MOR GTP binding assay_v1 (% I)” value in experiment [1] is given as 1.00%.

In the case of `Cc1ccccc1-c1nc(CN(C(=O)[C@@H](N)Cc2c(C)cc(O)cc2C)C(C)C)[nH]c1C` [Cpd 165], the Ki at delta opioid receptor (read-out: r Ki δ) amounted to 23.6 nM; at human mu opioid receptor (read-out: hKi μ) it was 0.45 nM. In experiment [1], the “MOR GTP binding assay_v1 (% I)” value turned out to be 1.00%.

Turning to `COc1ccc(CN(C(=O)[C@@H](N)Cc2c(C)cc(C(N)=O)cc2C)[C@@H](C)c2nc(-c3ccccc3)c[nH]2)cc1C(=O)O` [Cpd 18], the Ki at delta opioid receptor (r Ki δ) fell in the range of 0.38 to 14.4 nM. Also, the Ki on human mu opioid receptor (hKi μ) amounted to 1.7 nM. Also, in experiment [1], the “MOR GTP binding assay_v2 (% I)” value stood at 7.54% and the EC50 came out at 1 nM.

`Cc1cc(O)cc(C)c1C[C@H](N)C(=O)N(Cc1nc(-c2ccc(F)cc2)c(C)[nH]1)C(C)C` [Cpd 163]: the Ki was 4.51 nM at delta opioid receptor (read-out: r Ki δ) and 0.67 nM on human mu opioid receptor (read-out: hKi μ). In experiment [1], the “MOR GTP binding assay_v1 (% I)” value came to 1.00%.

`Cc1cc(C(N)=O)cc(C)c1C[C@H](N)C(=O)N(Cc1ccc(C(=O)O)o1)[C@@H](C)c1nc(-c2ccccc2)c[nH]1` [Cpd 256]: the figures for the Ki at delta opioid receptor (read-out: r Ki δ) and at human mu opioid receptor (read-out: hKi μ) were 3.82 nM and 2 nM, respectively. Also, in experiment [1], the “MOR GTP binding assay_v2 (% I)” value is given as 29.40%. Further, the EC50 in experiment [1] was determined as 13 nM.

Turning to `Cc1cc(O)cc(C)c1C[C@H](N)C(=O)N(Cc1ccccc1)[C@@H](C)c1nc(-c2ccccc2)c[nH]1` [Cpd 218], the Ki at delta opioid receptor (read-out: r Ki δ) turned out to be 1.45 nM. Besides, the Ki on human mu opioid receptor (read-out: hKi μ) came to 3.92 nM. In experiment [1], the “MOR GTP binding assay_v1 (% I)” value is listed as 1.00% and the “MOR GTP assay_v1 % of Basal” value worked out at 599.00%.

For `COc1ccc(CN(C(=O)[C@@H](N)Cc2c(C)cc(C(N)=O)cc2C)[C@@H](C)c2nc(-c3ccccc3)c[nH]2)cc1-c1nnn[nH]1` [Cpd 8], the Ki at delta opioid receptor (read-out: r Ki δ) was 0.43 nM and 0.15 nM. Moreover, the Ki on human mu opioid receptor (read-out: hKi μ) was 2.5 nM and 4.4 nM. Besides, in experiment [1], the “MOR GTP binding assay_v2 (% I)” value came out at 13.95% and the concentration for a half-maximal effect (EC50) was 1.2 nM.

On to `COC(=O)c1cc(CN(C(=O)[C@@H](N)Cc2c(C)cc(C(N)=O)cc2C)[C@@H](C)c2nc(-c3ccccc3)c[nH]2)ccc1OC` [Cpd 17], for which the Ki is 60 nM at delta opioid receptor (read-out: r Ki δ) and 2.2 nM at human mu opioid receptor (read-out: hKi μ). The “MOR GTP binding assay_v2 (% I)” value in experiment [1] is given as 8.71%. Besides, in experiment [1], the EC50 is 2.5 nM.
